Results from the supplement of paper PMC10307832.

Columns and labels:
Experiment in all cases: relative viability (nuclei count vs DMSO), 5 days (fraction); higher = more cells survive
IMD-0354 + Olaparib = compound: O=C(Nc1cc(C(F)(F)F)cc(C(F)(F)F)c1)c1cc(Cl)ccc1O [IMD-0354] + O=C(c1cc(Cc2n[nH]c(=O)c3ccccc23)ccc1F)N1CCN(C(=O)C2CC2)CC1 [Olaparib] (partner 8 µM)
In short: (§1)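 After 5 days of treatment, lung cancer cells in 1536-well plates were fixed and stained in a single step (final 0.05% Triton X-100, 1% formaldehyde, 1 ug/ml Hoechst) and their nuclei counted on 4× images. Treatment had been applied by pin tool the day after seeding as one drug alone or as a fixed anchor-drug dose with five library-drug doses (not always all listed) in √10 steps. Relative viability is the nuclei count of treated wells divided by that of vehicle wells, and values are medians of duplicate plates.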

CX-5461 + Palbociclib = compound: Cc1cnc(CNC(=O)c2c(=O)c3ccc(N4CCCN(C)CC4)nc3n3c2sc2ccccc23)cn1 [CX-5461] + CC(=O)c1c(C)c2cnc(Nc3ccc(N4CCNCC4)cn3)nc2n(C2CCCC2)c1=O [Palbociclib] (partner 0.5 µM)
In short: as §1

IMD-0354 + Palbociclib = compound: O=C(Nc1cc(C(F)(F)F)cc(C(F)(F)F)c1)c1cc(Cl)ccc1O [IMD-0354] + CC(=O)c1c(C)c2cnc(Nc3ccc(N4CCNCC4)cn3)nc2n(C2CCCC2)c1=O [Palbociclib] (partner 0.5 µM)
In short: as §1

IMD-0354 + Pictilisib = compound: O=C(Nc1cc(C(F)(F)F)cc(C(F)(F)F)c1)c1cc(Cl)ccc1O [IMD-0354] + CS(=O)(=O)N1CCN(Cc2cc3nc(-c4cccc5[nH]ncc45)nc(N4CCOCC4)c3s2)CC1 [Pictilisib] (partner 1 µM)
In short: as §1

LCLC-97TM1
relative viability (IMD-0354 + Olaparib; first compound 0.04 µM): 0.407
relative viability (IMD-0354 + Olaparib; first compound 0.1265 µM): 0.387
relative viability (IMD-0354 + Olaparib; first compound 0.4 µM): 0.213
relative viability (IMD-0354 + Olaparib; first compound 1.265 µM): 0.154
relative viability (IMD-0354 + Olaparib; first compound 4 µM): 0.141
relative viability (CX-5461 + Palbociclib; first compound 0.01 µM): 0.211
relative viability (CX-5461 + Palbociclib; first compound 0.03162 µM): 0.254
relative viability (CX-5461 + Palbociclib; first compound 0.1 µM): 0.198
relative viability (CX-5461 + Palbociclib; first compound 0.3162 µM): 0.208
relative viability (CX-5461 + Palbociclib; first compound 1 µM): 0.227
relative viability (IMD-0354 + Palbociclib; first compound 0.04 µM): 0.227
relative viability (IMD-0354 + Palbociclib; first compound 0.1265 µM): 0.225
relative viability (IMD-0354 + Palbociclib; first compound 0.4 µM): 0.111
relative viability (IMD-0354 + Palbociclib; first compound 1.265 µM): 0.174
relative viability (IMD-0354 + Palbociclib; first compound 4 µM): 0.103
relative viability (IMD-0354 + Pictilisib; first compound 0.1265 µM): 0.145
relative viability (IMD-0354 + Pictilisib; first compound 0.4 µM): 0.142
relative viability (IMD-0354 + Pictilisib; first compound 1.265 µM): 0.128
relative viability (IMD-0354 + Pictilisib; first compound 4 µM): 0.103

LCLC-103H
relative viability (IMD-0354 + Olaparib; first compound 0.04 µM): 0.79
relative viability (IMD-0354 + Olaparib; first compound 0.1265 µM): 0.739
relative viability (IMD-0354 + Olaparib; first compound 0.4 µM): 0.566
relative viability (IMD-0354 + Olaparib; first compound 1.265 µM): 0.45
relative viability (IMD-0354 + Olaparib; first compound 4 µM): 0.379
relative viability (CX-5461 + Palbociclib; first compound 0.01 µM): 0.496
relative viability (CX-5461 + Palbociclib; first compound 0.03162 µM): 0.493
relative viability (CX-5461 + Palbociclib; first compound 0.1 µM): 0.458
relative viability (CX-5461 + Palbociclib; first compound 0.3162 µM): 0.466
relative viability (CX-5461 + Palbociclib; first compound 1 µM): 0.464
relative viability (IMD-0354 + Palbociclib; first compound 0.04 µM): 0.469
relative viability (IMD-0354 + Palbociclib; first compound 0.1265 µM): 0.468
relative viability (IMD-0354 + Palbociclib; first compound 0.4 µM): 0.459
relative viability (IMD-0354 + Palbociclib; first compound 1.265 µM): 0.386
relative viability (IMD-0354 + Palbociclib; first compound 4 µM): 0.331
relative viability (IMD-0354 + Pictilisib; first compound 0.04 µM): 0.676
relative viability (IMD-0354 + Pictilisib; first compound 0.1265 µM): 0.655
relative viability (IMD-0354 + Pictilisib; first compound 0.4 µM): 0.521
relative viability (IMD-0354 + Pictilisib; first compound 1.265 µM): 0.544
relative viability (IMD-0354 + Pictilisib; first compound 4 µM): 0.345

LK-2
relative viability (IMD-0354 + Olaparib; first compound 0.04 µM): 0.695
relative viability (IMD-0354 + Olaparib; first compound 0.1265 µM): 1.02
relative viability (IMD-0354 + Olaparib; first compound 1.265 µM): 0.526
relative viability (IMD-0354 + Olaparib; first compound 4 µM): 0.172
relative viability (CX-5461 + Palbociclib; first compound 0.01 µM): 0.54
relative viability (CX-5461 + Palbociclib; first compound 0.03162 µM): 0.972
relative viability (CX-5461 + Palbociclib; first compound 0.1 µM): 0.724
relative viability (CX-5461 + Palbociclib; first compound 1 µM): 0.564
relative viability (IMD-0354 + Palbociclib; first compound 0.04 µM): 0.521
relative viability (IMD-0354 + Palbociclib; first compound 0.1265 µM): 0.614
relative viability (IMD-0354 + Palbociclib; first compound 1.265 µM): 0.877
relative viability (IMD-0354 + Palbociclib; first compound 4 µM): 0.185
relative viability (IMD-0354 + Pictilisib; first compound 0.04 µM): 0.425
relative viability (IMD-0354 + Pictilisib; first compound 0.1265 µM): 0.504
relative viability (IMD-0354 + Pictilisib; first compound 0.4 µM): 0.408
relative viability (IMD-0354 + Pictilisib; first compound 1.265 µM): 0.381
relative viability (IMD-0354 + Pictilisib; first compound 4 µM): 0.246

LOU-NH91
relative viability (IMD-0354 + Olaparib; first compound 0.04 µM): 0.938
relative viability (IMD-0354 + Olaparib; first compound 0.1265 µM): 0.447
relative viability (IMD-0354 + Olaparib; first compound 0.4 µM): 0.285
relative viability (IMD-0354 + Olaparib; first compound 1.265 µM): 0.147
relative viability (IMD-0354 + Olaparib; first compound 4 µM): 0.282
relative viability (CX-5461 + Palbociclib; first compound 0.01 µM): 0.516
relative viability (CX-5461 + Palbociclib; first compound 0.03162 µM): 0.557
relative viability (CX-5461 + Palbociclib; first compound 0.1 µM): 0.513
relative viability (CX-5461 + Palbociclib; first compound 0.3162 µM): 0.439
relative viability (CX-5461 + Palbociclib; first compound 1 µM): 0.478
relative viability (IMD-0354 + Palbociclib; first compound 0.04 µM): 0.538
relative viability (IMD-0354 + Palbociclib; first compound 0.1265 µM): 0.464
relative viability (IMD-0354 + Palbociclib; first compound 0.4 µM): 0.242
relative viability (IMD-0354 + Palbociclib; first compound 1.265 µM): 0.188
relative viability (IMD-0354 + Palbociclib; first compound 4 µM): 0.243
relative viability (IMD-0354 + Pictilisib; first compound 0.04 µM): 0.556
relative viability (IMD-0354 + Pictilisib; first compound 0.1265 µM): 0.591
relative viability (IMD-0354 + Pictilisib; first compound 0.4 µM): 0.259
relative viability (IMD-0354 + Pictilisib; first compound 1.265 µM): 0.203
relative viability (IMD-0354 + Pictilisib; first compound 4 µM): 0.209

LU99A
relative viability (IMD-0354 + Olaparib; first compound 0.04 µM): 0.196
relative viability (IMD-0354 + Olaparib; first compound 0.1265 µM): 0.269
relative viability (IMD-0354 + Olaparib; first compound 0.4 µM): 0.257
relative viability (IMD-0354 + Olaparib; first compound 1.265 µM): 0.176
relative viability (IMD-0354 + Olaparib; first compound 4 µM): 0.179
relative viability (CX-5461 + Palbociclib; first compound 0.01 µM): 0.411
relative viability (CX-5461 + Palbociclib; first compound 0.03162 µM): 0.434
relative viability (CX-5461 + Palbociclib; first compound 0.1 µM): 0.389
relative viability (CX-5461 + Palbociclib; first compound 0.3162 µM): 0.322
relative viability (CX-5461 + Palbociclib; first compound 1 µM): 0.416
relative viability (IMD-0354 + Palbociclib; first compound 0.04 µM): 0.295
relative viability (IMD-0354 + Palbociclib; first compound 0.1265 µM): 0.418
relative viability (IMD-0354 + Palbociclib; first compound 0.4 µM): 0.325
relative viability (IMD-0354 + Palbociclib; first compound 1.265 µM): 0.279
relative viability (IMD-0354 + Palbociclib; first compound 4 µM): 0.179
relative viability (IMD-0354 + Pictilisib; first compound 0.04 µM): 0.287
relative viability (IMD-0354 + Pictilisib; first compound 0.1265 µM): 0.304
relative viability (IMD-0354 + Pictilisib; first compound 0.4 µM): 0.357
relative viability (IMD-0354 + Pictilisib; first compound 1.265 µM): 0.152
relative viability (IMD-0354 + Pictilisib; first compound 4 µM): 0.156

LXF-289
relative viability (IMD-0354 + Olaparib; first compound 0.04 µM): 0.959
relative viability (IMD-0354 + Olaparib; first compound 0.1265 µM): 0.945
relative viability (IMD-0354 + Olaparib; first compound 0.4 µM): 0.783
relative viability (IMD-0354 + Olaparib; first compound 1.265 µM): 0.418
relative viability (IMD-0354 + Olaparib; first compound 4 µM): 0.0925
relative viability (CX-5461 + Palbociclib; first compound 0.01 µM): 0.596
relative viability (CX-5461 + Palbociclib; first compound 0.03162 µM): 0.592
relative viability (CX-5461 + Palbociclib; first compound 0.1 µM): 0.629
relative viability (CX-5461 + Palbociclib; first compound 1 µM): 0.592
relative viability (IMD-0354 + Palbociclib; first compound 0.04 µM): 0.565
relative viability (IMD-0354 + Palbociclib; first compound 0.1265 µM): 0.61
relative viability (IMD-0354 + Palbociclib; first compound 0.4 µM): 0.454
relative viability (IMD-0354 + Palbociclib; first compound 1.265 µM): 0.435
relative viability (IMD-0354 + Palbociclib; first compound 4 µM): 0.0922
relative viability (IMD-0354 + Pictilisib; first compound 0.04 µM): 0.798
relative viability (IMD-0354 + Pictilisib; first compound 0.1265 µM): 0.787
relative viability (IMD-0354 + Pictilisib; first compound 0.4 µM): 0.524
relative viability (IMD-0354 + Pictilisib; first compound 1.265 µM): 0.157
relative viability (IMD-0354 + Pictilisib; first compound 4 µM): 0.0919

NCI-H23
relative viability (IMD-0354 + Olaparib; first compound 0.04 µM): 0.277
relative viability (IMD-0354 + Olaparib; first compound 0.1265 µM): 0.35
relative viability (IMD-0354 + Olaparib; first compound 0.4 µM): 0.24
relative viability (IMD-0354 + Olaparib; first compound 1.265 µM): 0.132
relative viability (IMD-0354 + Olaparib; first compound 4 µM): 0.197
relative viability (CX-5461 + Palbociclib; first compound 0.01 µM): 0.48
relative viability (CX-5461 + Palbociclib; first compound 0.03162 µM): 0.584
relative viability (CX-5461 + Palbociclib; first compound 0.1 µM): 0.499
relative viability (CX-5461 + Palbociclib; first compound 0.3162 µM): 0.576
relative viability (CX-5461 + Palbociclib; first compound 1 µM): 0.43
relative viability (IMD-0354 + Palbociclib; first compound 0.04 µM): 0.482
relative viability (IMD-0354 + Palbociclib; first compound 0.1265 µM): 0.418
relative viability (IMD-0354 + Palbociclib; first compound 0.4 µM): 0.349
relative viability (IMD-0354 + Palbociclib; first compound 1.265 µM): 0.153
relative viability (IMD-0354 + Palbociclib; first compound 4 µM): 0.189
relative viability (IMD-0354 + Pictilisib; first compound 0.04 µM): 0.53
relative viability (IMD-0354 + Pictilisib; first compound 0.1265 µM): 0.472
relative viability (IMD-0354 + Pictilisib; first compound 0.4 µM): 0.306
relative viability (IMD-0354 + Pictilisib; first compound 1.265 µM): 0.188
relative viability (IMD-0354 + Pictilisib; first compound 4 µM): 0.165

NCI-H322M
relative viability (IMD-0354 + Olaparib; first compound 0.04 µM): 0.789
relative viability (IMD-0354 + Olaparib; first compound 0.1265 µM): 0.773
relative viability (IMD-0354 + Olaparib; first compound 0.4 µM): 0.6
relative viability (IMD-0354 + Olaparib; first compound 1.265 µM): 0.407
relative viability (IMD-0354 + Olaparib; first compound 4 µM): 0.517
relative viability (CX-5461 + Palbociclib; first compound 0.01 µM): 0.471
relative viability (CX-5461 + Palbociclib; first compound 0.03162 µM): 0.457
relative viability (CX-5461 + Palbociclib; first compound 0.1 µM): 0.503
relative viability (CX-5461 + Palbociclib; first compound 0.3162 µM): 0.429
relative viability (CX-5461 + Palbociclib; first compound 1 µM): 0.434
relative viability (IMD-0354 + Palbociclib; first compound 0.04 µM): 0.507
relative viability (IMD-0354 + Palbociclib; first compound 0.1265 µM): 0.5
relative viability (IMD-0354 + Palbociclib; first compound 0.4 µM): 0.5
relative viability (IMD-0354 + Palbociclib; first compound 1.265 µM): 0.39
relative viability (IMD-0354 + Palbociclib; first compound 4 µM): 0.41
relative viability (IMD-0354 + Pictilisib; first compound 0.04 µM): 0.575
relative viability (IMD-0354 + Pictilisib; first compound 0.1265 µM): 0.519
relative viability (IMD-0354 + Pictilisib; first compound 0.4 µM): 0.485
relative viability (IMD-0354 + Pictilisib; first compound 1.265 µM): 0.557
relative viability (IMD-0354 + Pictilisib; first compound 4 µM): 0.446
